Usually logP stands for the decadic logarithm of the partition coefficient of the neutral form, usually between octanol and water. A lower logP goes with lower lipophilicity.

This data set can be described thus: method code SF-TN, from DOI: 10.1007/bf00773207.

`O=C(O)c1ccc(Cl)cc1Nc1ccccc1` registered a lipophilicity (logP) of 4.25. On to `Cc1ccc(Nc2ccccc2C(=O)O)cc1`, for which the logP was determined as 4.09. Consider `COc1ccc(Nc2cc(Cl)ccc2C(=O)O)cc1`, for which the logP worked out at 4.41. For `COc1ccccc1Nc1cc(Cl)ccc1C(=O)O`, the logP stood at 4.32. Take `O=C(O)c1ccccc1Nc1ccccc1`: the logP was determined as 3.52. Turning to `Cc1ccc(Nc2cc(Cl)ccc2C(=O)O)cc1`, the log partition coefficient (logP) was 4.81.

`O=C(O)c1ccc(Cl)cc1Nc1cccc(Br)c1` displayed a logP of 5.16. For the compound `O=C(O)c1ccc(Cl)cc1Nc1cccc([N+](=O)[O-])c1`, the logP came out at 4.05.

`Cc1ccc(Nc2cc(Cl)ccc2C(=O)O)cc1C` yielded a logP of 5.43. Compound `O=C(O)c1ccc(Cl)cc1Nc1ccccc1Cl` registered a logP of 4.67.

Turning to `Cc1ccccc1Nc1cc(Cl)ccc1C(=O)O`, the logP is 4.73.

Consider `O=C(O)c1ccc(Cl)cc1Nc1ccc(Cl)cc1`, for which the logP is 4.97.

Consider `Cc1cc(C)cc(Nc2cc(Cl)ccc2C(=O)O)c1`, for which the logP turned out to be 5.48. Regarding `COc1ccccc1Nc1ccccc1C(=O)O`, the logP amounted to 3.6. The compound `O=C(O)c1ccc(Cl)cc1Nc1ccc(I)cc1` registered a logP of 5.37. In turn, `O=C(O)c1ccccc1Nc1ccc(Cl)cc1` returned a logP of 4.24.

The compound `O=C(O)c1ccc(Cl)cc1Nc1ccc([N+](=O)[O-])cc1` yielded a logP of 4.04. `O=C(O)c1ccccc1Nc1ccccc1Cl` registered a logP of 3.94. Compound `COc1ccc(Nc2ccccc2C(=O)O)cc1` came in with a log partition coefficient (logP) of 3.68. In the case of `Cc1ccccc1Nc1ccccc1C(=O)O` it was 4.01; in that of `O=C(O)c1ccc(Cl)cc1Nc1cccc(Cl)c1`, 5.
